This is an account of results in US12144834B2, “Methods and compositions for treating gastrointestinal and inflammatory disorders” (Xbiome Inc., priority 2018, dated 2024).

One assay concerns RHO01. The assay can be described thus: Phenotypic antibiotic susceptibility (MIC, Etests), research cell bank. It counts as cell-based, Roseburia hominis. The settings on record: for MIC: Roseburia hominis, read-out: Determined MIC; for MIC Interpretation: against RHO01.
In another assay the test system is BTH01. The assay is described as follows: Phenotypic antibiotic susceptibility (MIC), research cell bank. It is filed as cell-based, Bacteroides thetaiotaomicron. The settings on record: for MIC: Bacteroides thetaiotaomicron, read-out: Determined MIC; for MIC Interpretation: against BTH01.
In a further assay the test system is EHA01. The assay is described as follows: Phenotypic antibiotic susceptibility (MIC, Etests), research cell bank. It counts as cell-based, Eubacterium hallii. The settings on record: for MIC: Anaerobutyricum hallii, read-out: Determined MIC; for MIC Interpretation: against EHA01.

≈ marks a conversion by molar mass, not a printed value. Where two headings read alike, the source gives them in different places.

One may read the MIC as the least concentration at which growth counts as inhibited. For the molecule `CC1(C)S[C@@H]2[C@H](NC(=O)[C@H](N)c3ccccc3)C(=O)N2[C@H]1C(=O)O` [Ampicillin], the MIC was at most 0.016 µg/mL in the assay with RHO01 (against RHO01, Etests); 32 µg/mL (≈ 91.6 µM) with BTH01 (against BTH01, agar dilution); 0.06 µg/mL (≈ 0.172 µM) with EHA01 (against EHA01, Etests). Moreover, the “MIC Interpretation” value with RHO01 is reported as “S”; in the assay with BTH01, “R”; in the assay with EHA01, “S”.

With `CO[C@@]1(NC(=O)C2SC(=C(C(N)=O)C(=O)O)S2)C(=O)N2C(C(=O)O)=C(CSc3nnnn3C)CS[C@@H]21` (some centres unmarked) [Cefotetan], the MIC in the assay with BTH01 (against BTH01, agar dilution) turned out to be 256 µg/mL (≈ 445 µM). In addition, in the assay with BTH01, the “MIC Interpretation” value is reported as “R”.

For the molecule `CCC[C@@H]1C[C@@H](C(=O)N[C@@H]([C@H]2O[C@H](SC)[C@H](O)[C@@H](O)[C@H]2O)[C@H](C)Cl)N(C)C1` [Clindamycin], the MIC was at most 0.016 µg/mL in the assay with RHO01 (against RHO01, Etests); over 32 µg/mL with BTH01 (against BTH01, agar dilution); 0.03 µg/mL (≈ 0.0706 µM) in the assay with EHA01 (against EHA01, Etests). Besides, the “MIC Interpretation” value in the assay with RHO01 is “S”; against BTH01, “R”; in the assay with EHA01, “S”.

For the molecule `C[C@@H](O)[C@H]1C(=O)N2C(C(=O)O)=C(SCCN=CN)C[C@H]12` [Imipenem], the MIC in the assay with RHO01 (against RHO01, Etests) is 0.12 µg/mL (≈ 0.401 µM); in the assay with BTH01 (against BTH01, agar dilution) it was 0.5 µg/mL (≈ 1.67 µM); in the assay on EHA01 (against EHA01, Etests) it was 0.008 µg/mL (≈ 0.0267 µM). Also, the “MIC Interpretation” value against RHO01, against BTH01 and with EHA01 was “S” in each case.

Turning to `Cc1ncc([N+](=O)[O-])n1CCO` [Metronidazole], the minimum inhibitory concentration (MIC) with RHO01 (against RHO01, Etests) is 0.03 µg/mL (≈ 0.175 µM); with BTH01 (against BTH01, agar dilution), 2 µg/mL (≈ 11.7 µM); in the assay with EHA01 (against EHA01, Etests), 0.06 µg/mL (≈ 0.351 µM). Further, the “MIC Interpretation” value with RHO01, against BTH01 and in the assay on EHA01 was “S” throughout.

Regarding `COc1c(N2C[C@@H]3CCCN[C@@H]3C2)c(F)cc2c(=O)c(C(=O)O)cn(C3CC3)c12` [Moxifloxacin], the MIC is 32 µg/mL (≈ 79.7 µM) in the assay with RHO01 (against RHO01, Etests); 2 µg/mL (≈ 4.98 µM) with BTH01 (against BTH01, agar dilution); 2 µg/mL (≈ 4.98 µM) in the assay with EHA01 (against EHA01, Etests). Moreover, the figures for the “MIC Interpretation” value against RHO01, in the assay on BTH01 and against EHA01 were “R”, “S” and “S”, respectively.

Turning to `CN[C@H](CC(C)C)C(=O)N[C@H]1C(=O)N[C@@H](CC(N)=O)C(=O)N[C@H]2C(=O)N[C@H]3C(=O)N[C@H](C(=O)N[C@H](C(=O)O)c4cc(O)cc(O)c4-c4cc3ccc4O)[C@H](O)c3ccc(c(Cl)c3)Oc3cc2cc(c3O[C@@H]2O[C@H](CO)[C@@H](O)[C@H](O)[C@H]2O[C@H]2C[C@](C)(N)[C@H](O)[C@H](C)O2)Oc2ccc(cc2Cl)[C@H]1O` [Vancomycin], the MIC with RHO01 turned out to be 0.25 µg/mL (≈ 0.173 µM); with BTH01 it was 64 µg/mL (≈ 44.2 µM); with EHA01, 0.12 µg/mL (≈ 0.0828 µM).
